Test results reported in PMC7435853, “L-Malate (−2) Protonation State is Required for Efficient Decarboxylation to L-Lactate by the Malolactic Enzyme of Oenococcus oeni” (Molecules, 2020).

Target: T1, malolactic enzyme (MLE) (Oenococcus oeni, UniProt Q04DQ3)
T1 construct: gene OEOE_1564; full-length gene (1626 bp), His-tagged (HisTrap) from pET vector (text says pET28a and pET21a), E. coli BL21(DE3); reported dimer
T1 sequence (Q04DQ3 1-541): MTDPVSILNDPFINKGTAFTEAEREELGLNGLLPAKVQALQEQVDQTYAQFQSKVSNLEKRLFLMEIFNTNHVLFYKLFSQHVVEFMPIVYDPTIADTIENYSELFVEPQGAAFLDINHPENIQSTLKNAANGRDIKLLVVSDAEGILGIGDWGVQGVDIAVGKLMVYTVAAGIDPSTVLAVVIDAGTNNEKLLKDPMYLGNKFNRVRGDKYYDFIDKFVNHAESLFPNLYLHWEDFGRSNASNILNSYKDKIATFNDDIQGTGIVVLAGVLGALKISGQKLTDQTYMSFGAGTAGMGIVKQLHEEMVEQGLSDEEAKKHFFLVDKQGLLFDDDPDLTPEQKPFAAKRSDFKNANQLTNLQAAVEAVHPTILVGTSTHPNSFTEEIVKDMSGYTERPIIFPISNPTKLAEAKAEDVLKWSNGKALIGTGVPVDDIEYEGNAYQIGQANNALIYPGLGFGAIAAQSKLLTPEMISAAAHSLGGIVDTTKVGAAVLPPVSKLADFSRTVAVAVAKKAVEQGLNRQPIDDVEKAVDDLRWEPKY
Test: isothermal titration calorimetry
Type: binding
From the text: isothermal titration calorimetry on malolactic enzyme (MLE)

Kd | Structure (SMILES)
1.29 µM | O=C(O)C[C@H](O)C(=O)O [MAL^2−, L-malate (−2)]
3.19 µM | O=C(O)C[C@H](O)C(=O)O [MAL^−, L-malate (−1)]
